# Reference: patent US6538028B1, “Method for inhibiting complement activation” (Vanderbilt University, priority 2000, dated 2003)
# Several values for one entry are separate records, joined by “and”; a condition that tells them apart may be missing. Equal entries are not always repeated. Where two headings read alike, the source gives them in different places. Marks after values point to notes of the source that are not given here.
# What was measured:
# complement (C3a, C5b-9) = conditions: for C3a Mean: mean of two samples; for C3a / C5b-9: single sample
# Protocol: Platelet poor plasma (PPP—Example 4) and platelet rich plasma (PRP—Example 5) was prepared from human heparinized blood. Human plasma was treated with ATA (0.5 mg/ml), SC (0.5 μg/ml), ATA+SC, bivalirudin (HIRULOG®, 0.1 g/L), or water (negative control) and then incubated in presence of zymosan (10 mg/mL) or cobra venom factor (CVF, 1 or 5 U/mL) to activate complement (negative control is water), for one hour at 37° C. with shaking. Then, the samples were subjected to centrifugation at 10,000 g for 45 minutes. The supernatant was then frozen in small aliquots at −70° C. C3a and C5b-9 levels were then assayed using commercial ELISA kits (Quidel).
# [1] = test system: piglet lungs perfused with heparinized human blood
# Protocol: In an established in situ, ex vivo model, piglet lungs were perfused with either heparinized (3,000 U/L) human blood or with blood additionally pretreated with 140 mg/L of bivalirudin (a semisynthetic analogue of hirudin). Pulmonary vein effluent was collected serially for measurement of complement activation (C3a), mast cell activation (histamine), and thrombin formation (F1+2). Survival endpoints were loss of transpulmonary blood flow, loss of oxygenation across the lungs, and sequestration of perfusate volume (˜1 L) into the lung. Statistical comparisons were made using the 2-tailed t-test.
# [2] = test system: piglet lungs perfused with human blood
# Protocol: […] piglets (4-6 kg) were used in an established in situ ex vivo isolated lung perfusion model. Piglet lungs were perfused with unmodified human blood or blood treated with either aurintricarboxylic acid (ATA, 0.5 mg/mL; GPIb inhibitor), SC52012A (SC, 0.2 μg/mL; GPIIb/IIIa antagonist, G.D. Searle & Co. of Chicago, Ill.), or both. Thus, experimental groups received either 500 mg of ATA, 200 μg of SC52012A, or both drugs added to fresh human blood perfusate (pooled from three donors) prior to lung perfusion, while control groups received unmodified blood.
# Pulmonary vascular resistance (PVR) was calculated from pulmonary artery land vein pressures and flow. Pulmonary vein effluent was collected serially for comparison of complement activation (C3a), mast cell activation (histamine) and thromboxane production (TXB2) between groups. Survival endpoints were loss of transpulmonary flow, loss of oxygenation across the lungs, frank tracheal edema, and loss of perfusate volume (˜1L) into lung parenchyma.
# [3] = PPP, CVF 1U, listed as HIRULOG ®
compound,measurement,setting,value
bivalirudin,C5b-9 Mean,"complement (C3a, C5b-9); PPP, CVF 1U",917 ng/mL
same,C3a Mean,"complement (C3a, C5b-9); PPP, CVF 1U",1350 ng/mL
same,C3a,"complement (C3a, C5b-9); [3]",1250 ng/mL and 1450 ng/mL
same,C5b-9,"complement (C3a, C5b-9); [3]",890 ng/mL and 943 ng/mL
same,C5b-9 Mean,"complement (C3a, C5b-9); PPP, water (no activator)",26 ng/mL
same,C3a Mean,"complement (C3a, C5b-9); PPP, water (no activator)",548 ng/mL
same,C5b-9,"complement (C3a, C5b-9); PPP, water (no activator)",26 ng/mL
same,C3a,"complement (C3a, C5b-9); PPP, water (no activator), 1 h 37° C., listed as HIRULOG ®",590 ng/mL and 505 ng/mL
same,C5b-9 Mean,"complement (C3a, C5b-9); PRP, CVF 1U",842 ng/mL
same,C3a Mean,"complement (C3a, C5b-9); PRP, CVF 1U",1650 ng/mL
same,C5b-9,"complement (C3a, C5b-9); PRP, CVF 1U",842 ng/mL
same,C3a,"complement (C3a, C5b-9); PRP, CVF 1U, listed as HIRULOG ®",1800 ng/mL and 1500 ng/mL
same,C5b-9 Mean,"complement (C3a, C5b-9); PRP, water (no activator)",126 ng/mL
same,C3a Mean,"complement (C3a, C5b-9); PRP, water (no activator)",435 ng/mL
same,C5b-9,"complement (C3a, C5b-9); PRP, water (no activator)",126 ng/mL
same,C3a,"complement (C3a, C5b-9); PRP, water (no activator), 1 h 37° C., listed as HIRULOG ®",490 ng/mL and 380 ng/mL
same,thrombin production limited (as measured by F1+2),[1],more than 90%
same,ΔC3a 1 min μg/ml (± SEM),[1]; 1 min,0.82 (0.8)* μg/ml
same,PVR cm H2O/mL/min 5 min (± SEM),[1]; 5 min,0.16 (.05)* cm H2O/mL/min
same,Δ histamine 10 min nM (± SEM),[1]; 10 min,21 (4)* nM
same,ΔC3a 10 min μg/ml (± SEM),[1]; 10 min,1.97 (1) μg/ml
same,ΔF1 + 2 10 min nM (± SEM),"[1]; 10 min, thrombin formation",0.5 (0.8)* nM
same,Survival Min (± SEM),[1]; bivalirudin 140 mg/L in heparinized human blood,77 (22)* Min
same,mean survival,[1]; control 8 minutes,77 min
same,Complement activation,[1]; in words,significantly blunted
same,histamine release,[1]; in words,significantly decreased
same,intrapulmonary platelet sequestration,[1]; in words,significantly blunted
same,rise in PVR,[1]; in words,significantly decreased
"O=C(O)C1=CC(=C(c2ccc(O)c(C(=O)O)c2)c2ccc(O)c(C(=O)O)c2)C=CC1=O [ATA, aurintricarboxylic acid]","ΔC3a, 1 min, μg/mL (Mean ± SEM)","[2]; 1 min, pulmonary vein effluent",0.30* μg/mL
same,Platelet sequestration at 10 min,"[2]; 10 min, controls 89%",51%
same,"ΔC3a, 10 min, μg/mL (Mean ± SEM)","[2]; 10 min, pulmonary vein effluent",1.81 µg/mL
same,median survival,[2]; control 12 min,25 min
same,Median Survival in min (95% conf int),"[2]; pig lung perfused with human blood, ATA 0.5 mg/mL, SC 0.2 μg/mL",25* min
